The test system of the assay is DAF (CD55) on MCF-7 breast cancer cells. Briefly: TNF-α modulation of DAF (CD55) on MCF-7 breast cancer cells (western blot, densitometry). Format: cell-based. As to conditions: MCF-7 cells, different concentrations of recombinant TNF-α for 18 hours. As for the experimental part:
Estrogen primed and unprimed MCF-7 cells were treated with different concentrations of recombinant TNF-α for 18 hours. Estrogen primed cells were treated overnight with 20 ng/ml β estradiol. DAF protein was extracted by lysis treatment of cells and quantitated, run on SDS-PAGE followed by western blot analysis using anti DAF antibody. Bands were visualized by ECL method (Amersham). DAF levels were quantitated densitometrically and expressed as densitometric units.

This is an account of results in patent US20030129677A1, “Diagnostic method for screening complement regulatory protein levels” (priority 2000, published 2003).

Consider TNF-α, for which the “DAF (CD55) expression” value is “upregulated CD55 in a dose dependent manner” (estrogenized conditions (primed overnight with 20 ng/ml β estradiol), FIG. 5) and “downregulated expression of CD55 in a dose dependent manner” (nonestrogenized conditions).
